# Experimental data reported in US11590105B2, “Intrathecal administration of levetiracetam” (Sintetica S.A., priority 2019, dated 2023).
# Assay: Osmolality of various concentrations of levetiracetam in water
# Type: physicochemical
# From the text: Sodium chloride and other halide salts that affect the tonicity of the solution are preferably omitted from the formulations and unnecessary because levetiracetam itself yields an isotonic (or slightly above isotonic) formulation in the formulations of the present invention. The following table gives the osmolality of various concentrations of levetiracetam in water: […]
compound,measurement,setting,value
"CC[C@@H](C(N)=O)N1CCCC1=O [Levetiracetam, (−)-(S)-α-ethyl-2-oxo-1-pyrrolidine acetamide]",Osmolality,levetiracetam conc. 2.75 mg/ml in water,16 mOsm/kg
same,Osmolality,levetiracetam conc. 45 mg/ml in water,262 mOsm/kg
same,Osmolality,levetiracetam conc. 50 mg/ml in water,292 mOsm/kg
same,Osmolality,levetiracetam conc. 60 mg/ml in water,348 mOsm/kg
same,Osmolality,levetiracetam conc. 65 mg/ml in water,377 mOsm/kg
